Source: paper PMC10908709, “3-styrylcoumarin scaffold-based derivatives as a new approach for leishmaniasis intervention: biological and molecular modeling studies” (Journal of Parasitic Diseases: Official Organ of the Indian …, 2024)
Several values for one entry are separate records, joined by “and”; a condition that tells them apart may be missing. Equal entries are not always repeated.

Columns and labels:
[1] = test system: axenic amastigote forms of L. panamensis; set-up: method as in Arango et al. 2010; conditions: ref Arango et al. 2010; cited from earlier work
[2] = test system: intracellular amastigotes of L. (V) panamensis; test: In vitro antileishmanial activity on intracellular amastigotes (GFP parasites, flow cytometry); type: cell-based, Leishmania (Viannia) panamensis; conditions: for EC50: read-out: Anti-leishmanial activity on intracellular amastigotes EC50 (converted); for SI (selectivity index = LC50/EC50): U-937 LC50 / amastigote EC50
Method: The activity of compounds was evaluated on intracellular amastigotes of L. (V) panamensis transfected with the green fluorescent protein gene (MHOM/CO/87/UA140-EGFP) (Pulido et al. [2012]). The effect of each compound was determined according to the inhibition of the infection evidenced by both, decrease of the infected cells and decrease of intracellular parasite amount. Briefly, U-937 human cells at a concentration of 3 × 10^5 cells/mL in RPMI 1640 containing 0.1 μg/mL of phorbol-12-myristate-13-acetate (PMA) were dispensed into each one of a 24-well cell culture plate and then infected with 5 day-old promastigotes in a 15:1 parasites per cell ratio. Plates were incubated at 34 °C, 5% CO2 during 3 h and cells were washed two times with PBS to eliminate non internalized parasites. One mL of fresh complete RPMI 1640 medium supplemented with 10% FBS and 1% antibiotics was added into each well, cells were incubated again to guarantee multiplication of intracellular parasites. After 24 h of infection, culture medium was replaced by fresh culture medium containing each compound at 50–6.12 and 1.56 μg/mL and plates were incubated at 37 °C, 5% CO2. After 72 h, inhibition of the infection was determined. For this, cells were removed from the bottom plate with a trypsin/EDTA (250 mg) solution; recovered cells were centrifuged at 1100 rpm during 10 min at 4 °C, the supernatant was discarded and cells were washed with 1 mL of cold PBS and centrifuged at 1100 rpm during 10 min at 4 °C. The supernatant was discarded and cells were suspended in 500 μL of PBS and analyzed by flow cytometry (FC 500MPL, Cytomics, Brea, CA, US). All determinations for each compound including standard drugs were carried out by triplicate, in two independent experiments. Activity of the tested compounds was carried out in parallel with infection progress in culture medium alone and in culture medium with amphotericin B as antileishmanial drugs (positive controls).
Antileishmanial activity was determined according to percentage of infected cells and parasite amount obtained for each experimental condition by flow cytometer. The percentage of infected cells was determined as the number of positive events by green fluorescence (parasites) in y-axis and Forward Scatte in x-axis. Then, the parasitic load in those infected cells was determined by a histogram of the mean fluorescence intensity (MFI) of those fluorescent parasites (Pulido et al. [2012]).
Parasitemia inhibition was calculated by Eq. 2, where the MFI of control corresponds to 100% of parasitemia. In turn, inhibition percentage corresponds to 100% Parasitemia.

[3] = In vitro cytotoxicity, MTT assay; type: cell-based; conditions: human
Method: (§1) Cytotoxic activity of the studied compounds was assessed in the human promonocytic U-937 cells (ATCC CRL-1593.2™) based on viability evaluated by the MTT (3-(4,5-dimethylthiazol-2-yl)-2,5-diphenyltetrazolium bromide) assay as described elsewhere (Taylor et al. [2011]). Briefly, U-937 cells grown in tissue flasks were harvested and washed with phosphate buffered saline (PBS) by centrifugation. Cells were counted and adjusted at 1 × 10^6 cells/mL of complete culture medium (RPMI-1640 supplemented with 10% Fetal Bovine Serum-FBS and 1% of antibiotics (100 ug/mL penicillin and 0.1 mg/mL streptomycin). One hundred µL of cell suspension were dispensed into each well of a 96-well cell-culture plate and then 100 µL of two-fold serial dilutions of the compounds (starting at 200 µg/mL) in complete RPMI 1640 medium were added. Plates were incubated at 37 °C, under 5% CO2 atmosphere during 72 h. Then, 10 µL of MTT solution (0.5 mg/mL) were added into each well, and plates were then incubated at 37 °C for 3 h. The formazan crystals were dissolved by adding 100 µL/well of dimethyl sulfoxide and 30 min incubation. Cell viability was determined according to the intensity of color (absorbance) registered as optical densities (O.D) obtained at 570 nm in a Varioskan™ Flash Multimode Reader-ThermoScientific, USA spectrophotometer. Cells cultured in absence of compounds were used as control of viability (negative control), while doxorrubicin was used as control for cytotoxic drugs. Non-specific absorbance was corrected by subtracting the O.D of the blank. Assays were conducted in two independent runs with three replicas per each concentration tested.
(§2) Cytotoxicity was determined according to cell growth (viability) and mortality percentages obtained for each isolated experiment (compounds, doxorubicin and culture medium). Results were expressed as 50 lethal concentrations (LC50), corresponding to the concentration necessary to eliminate 50% of cells, calculated by Probit analysis (Finney [1978]). Percentage of viability was calculated by Eq. 1, where the optical density (O.D) of control corresponds to 100% of viability (cell growth).1 %Mortality=1-O.D Exposed cells/O.D Control cells×100

[4] = test system: intracellular amastigotes of L. (V) panamensis; test: In vitro antileishmanial activity on intracellular amastigotes (GFP parasites, flow cytometry); type: cell-based, Leishmania (Viannia) panamensis; conditions: for inhibition at 20 µg/mL: U-937, 72 h, infected U-937 cells, read-out: Inhibition intracellular amastigotes growth (%)
CHO-K1 cells = test system: CHO-K1 cells; set-up: method as in Herrera et al. 2018; conditions: previous study; ref Herrera et al. 2018; cited from earlier work
SW480 cells = test system: SW480 cells; set-up: method as in Herrera et al. 2018; conditions: previous study; ref Herrera et al. 2018; cited from earlier work
[5] = test system: promastigote forms of L. amazonensis; set-up: method as in Rosa et al. 2017; conditions: ref Rosa et al. 2017; read-out: IC50 against promastigote forms of L. amazonensis; cited from earlier work
[6] = test system: amastigote forms of L. amazonensis; set-up: method as in Rosa et al. 2017; conditions: ref Rosa et al. 2017; read-out: IC50 against amastigote forms of L. amazonensis; cited from earlier work
[7] = test system: intracellular amastigotes of L. donovani; set-up: method as in Pierson et al. 2010; conditions: ref Pierson et al. 2010; cited from earlier work
U-937 cells = test: In vitro cytotoxicity, MTT assay; type: cell-based; conditions: 72 h, MTT
Method: as §1, §2

Question: Which “EC50 against axenic amastigote forms of L. panamensis” value (shortened to “EC50 against axenic amastigote forms”) [1] does the source give for `C=C(C)[C@H]1O[C@@H]1c1c(OC[C@H]2OC2(C)C)ccc2ccc(=O)oc12` (relative stereo) [B] here?
Answer: The value was 9.9 µg/mL.

Question: For `C[C@@H]1[C@H](O)[C@@H](C)/C=C/C=C/C=C/C=C/C=C/C=C/C=C/[C@H](O[C@@H]2O[C@H](C)[C@@H](O)[C@H](N)[C@@H]2O)C[C@@H]2O[C@](O)(C[C@@H](O)C[C@@H](O)[C@H](O)CC[C@@H](O)C[C@@H](O)CC(=O)O[C@H]1C)C[C@H](O)[C@H]2C(=O)O` [Amphotericin B, reference compound], which EC50 ([2]; 72 h, Probit) is on record?
Answer: The EC50 was 0.05 µg/mL and 50 nM.

Question: What about the “SI (selectivity index = LC50/EC50)” value [2] of the same molecule?
Answer: The value was 722.

Question: And the CC50 at 72 h [3]?
Answer: The CC50 at 72 h was 36.1 µg/mL and 39.1 µM.

Question: What about the inhibition of growth at 0.05 µg/mL ([4]; dose used 0.05 µg/ml, 72 h) of the same molecule?
Answer: The inhibition of growth at 0.05 µg/mL was 62.7 ± 1.4%.

Question: Which “EC50 against axenic amastigote forms” value [1] does the source give for `COc1ccc2ccc(=O)oc2c1-c1cocc1C` [C] here?
Answer: The value was 10.5 µg/mL.

Question: With `CCCCCCCCOc1ccc2c(C)c(/C=C/c3ccc(OC)cc3)c(=O)oc2c1` [Compound 3] as the molecule, how does the CC50 at 72 h [3] read?
Answer: The CC50 at 72 h was > 200 µg/mL and > 549 µM.

Question: What about the inhibition at 20 µg/mL [4] of the same molecule?
Answer: Its inhibition at 20 µg/mL is 0%.

Question: What does the source list for `CCCCCCCCOc1ccc2c(C)c(/C=C/c3ccc(OC)c(OC)c3)c(=O)oc2c1` [Compound 4]?
Answer: CC50 at 72 h [3]: 26 µg/mL and 66 µM; inhibition at 20 µg/mL [4]: 32.5 ± 0.8%

Question: With `CCCCCCCCOc1ccc2c(C)c(/C=C/c3ccc(OC)cc3OC)c(=O)oc2c1` [Compound 5] as the molecule, how does the CC50 at 72 h [3] read?
Answer: Its CC50 at 72 h is > 200 µg/mL and > 507 µM.

Question: And the inhibition at 20 µg/mL [4]?
Answer: The inhibition at 20 µg/mL was 3.7 ± 0.8%.

Question: What does the source list for `CCCCCCCCOc1ccc2c(C)c(/C=C/c3ccc(O)c(OC)c3)c(=O)oc2c1` [Compound 6]?
Answer: EC50 ([2]; 72 h, Probit): 15.4 µg/mL and 40.5 µM; SI (selectivity index = LC50/EC50) [2]: 1.2; Inhibition intracellular amastigotes growth (%) ([2]; at 20 µg/ml, 72 h, infected U-937 cells): 83.5 ± 5.0%; IC50 ([2]; read-out: IC50 against L. (V.) panamensis amastigotes (abstract)): 40.5 µM; CC50 at 72 h [3]: 19.7 µg/mL and 51.8 µM; inhibition at 20 µg/mL [4]: > 83%; IC50 (CHO-K1 cells): 69.8 µM; IC50 (SW480 cells): 26.1 µM

Question: With `CCCCCCCCOc1ccc2c(C)c(/C=C/c3cc(OC)ccc3OC)c(=O)oc2c1` [Compound 7] as the molecule, how does the CC50 at 72 h [3] read?
Answer: Its CC50 at 72 h is > 200 µg/mL and > 507 µM.

Question: And the inhibition at 20 µg/mL [4]?
Answer: The inhibition at 20 µg/mL was 7.1 ± 1.5%.

Question: For `CCCCCCCCOc1ccc2c(C)c(/C=C/c3cc(OC)c(O)c(OC)c3)c(=O)oc2c1` [Compound 8], which CC50 at 72 h [3] is on record?
Answer: Its CC50 at 72 h is 1 µg/mL and 2.4 µM.

Question: What about the inhibition of growth at 1 µg/mL ([4]; dose used 1.0 µg/ml, 72 h) of the same molecule?
Answer: The inhibition of growth at 1 µg/mL was 0%.

Question: Which CC50 at 72 h [3] does the source give for `CCCCCCCCOc1ccc2c(C)c(/C=C/c3ccc4c(c3)OCO4)c(=O)oc2c1` [Compound 9] here?
Answer: The CC50 at 72 h was > 200 µg/mL and > 529 µM.

Question: What about the inhibition at 20 µg/mL [4] of the same molecule?
Answer: Its inhibition at 20 µg/mL is 0%.

Question: For `C=C(C)C1OC1c1c(OC)ccc2ccc(=O)oc12` (centres unmarked) [D], which “EC50 against axenic amastigote forms” value [1] is on record?
Answer: Its value is 14.1 µg/mL.

Question: Which results are given for `CC(=O)OC[C@H]1O[C@@H](Oc2ccc3c(-c4ccccc4)cc(=O)oc3c2)[C@H](OC(C)=O)[C@@H](OC(C)=O)[C@@H]1OC(C)=O` [E]?
Answer: IC50 [5]: 10 µM; IC50 [6]: 34.9 µM

Question: With `COc1ccc(-c2cc(=O)oc3cc(OC)c(OC)cc23)cc1OC` [F] as the molecule, how does the IC50 [7] read?
Answer: Its IC50 is 1.1 µM.

Question: For Meglumine antimoniate, which “Inhibition intracellular amastigotes growth (%)” value ([2]; 72 h) is on record?
Answer: The value was 79.4 ± 2.1^ g %.

Question: What about the “Anti-leishmanial activity on intracellular amastigotes EC50” value ([2]; 72 h, Probit) of the same molecule?
Answer: The value was 9.4 ± 2.1 µg/mL.

Question: What about the EC50 ([2]; 72 h, Probit) of the same molecule?
Answer: Its EC50 is 25.7 µM.

Question: And the “Cytotoxicity on U-937 cells LC50” value (U-937 cells)?
Answer: The value was 416.4 ± 66.6 µg/mL.

Question: And the CC50 (U-937 cells; read-out: Cytotoxicity on U-937 cells LC50 (converted))?
Answer: Its CC50 is 1140 µM.
